Data from ChEMBL document CHEMBL1201862, “PubChem BioAssay data set” (2004).
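Step 1: Grow cells in 96-well plates. Step 2: Expose to compound for 48 hours at 5 concentrations. Step 3: Interpolate endpoints linearly; if unreached, use highest concentration. GI50 is the concentration that inhibits growth by half.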 Active and inactive are the calls of the source. No stated cut-off is given here; in the data, active = GI50 up to about 1.1 µM and inactive = higher.

Experiments:
Assay in all cases: NCI tumour cell line growth inhibition, 48 h
A498 = test system: A498
MCF7 = test system: MCF7
Malme-3M = test system: Malme-3M
MDA-N = test system: MDA-N
K562 = test system: K562
SK-MEL-2 = test system: SK-MEL-2
PC-3 = test system: PC-3
IGROV-1 = test system: IGROV-1
SW-620 = test system: SW-620
COLO 205 = test system: COLO 205
NCI-H226 = test system: NCI-H226
CCRF-CEM = test system: CCRF-CEM
HCT-116 = test system: HCT-116
HCC 2998 = test system: HCC 2998
CAKI-1 = test system: CAKI-1
SK-MEL-28 = test system: SK-MEL-28
BT-549 = test system: BT-549
SF-268 = test system: SF-268
HT-29 = test system: HT-29
SR = test system: SR

Row | SMILES | GI50 (A498) | GI50 (MCF7) | GI50 (Malme-3M) | GI50 (MDA-N) | GI50 (K562) | GI50 (SK-MEL-2) | GI50 (PC-3) | GI50 (IGROV-1) | GI50 (SW-620) | GI50 (COLO 205) | GI50 (NCI-H226) | GI50 (CCRF-CEM) | GI50 (HCT-116) | GI50 (HCC 2998) | GI50 (CAKI-1) | GI50 (SK-MEL-28) | GI50 (BT-549) | GI50 (SF-268) | GI50 (HT-29) | GI50 (SR)
1 | CN(C)c1ccc(/C=C/C=c2/c3ccccc3n3c2cc(-c2ccccc2)[n+]3C)cc1 | 0.387 µM (active) | 0.0935 µM (active) | 0.492 µM (active) | 0.234 µM (active) | 0.0512 µM (active) | 4.54 µM (inactive) | 0.133 µM (active) | 0.238 µM (active) | 0.0731 µM (active) | 0.0698 µM (active) | 0.454 µM (active) | 0.187 µM (active) | 0.0386 µM (active) | 0.303 µM (active) | 0.251 µM (active) | 0.459 µM (active) | 0.233 µM (active) | 0.497 µM (active) | 0.275 µM (active) | –
2 | COc1ccc(NC(=O)CC(=O)NN)cc1 | – | > 100 µM (inactive) | > 100 µM (inactive) | > 100 µM (inactive) | > 100 µM (inactive) | > 100 µM (inactive) | > 100 µM (inactive) | > 100 µM (inactive) | > 100 µM (inactive) | > 100 µM (inactive) | > 100 µM (inactive) | > 100 µM (inactive) | > 100 µM (inactive) | – | > 100 µM (inactive) | – | > 100 µM (inactive) | > 100 µM (inactive) | > 100 µM (inactive) | > 100 µM (inactive)
3 | Nc1nc(Cc2ccccc2)nc(Cc2ccccc2)c1-c1ccccc1 | 26 µM (inactive) | – | 20.4 µM (inactive) | 16.1 µM (inactive) | 18 µM (inactive) | 13.6 µM (inactive) | 23.1 µM (inactive) | 26.4 µM (inactive) | 33.9 µM (inactive) | – | 19.2 µM (inactive) | – | 19.5 µM (inactive) | 46.6 µM (inactive) | 39.5 µM (inactive) | 48.1 µM (inactive) | 20.6 µM (inactive) | 31 µM (inactive) | 21.9 µM (inactive) | 20.8 µM (inactive)
4 | COc1ccc([C@H]2C=C(c3cc(F)c(Cl)cc3Cl)N=c3s/c(=C\c4ccc(-c5ccc(Cl)cc5Cl)o4)c(=O)n32)cc1 | 2.48 µM (inactive) | 26.9 µM (inactive) | 99.1 µM (inactive) | 28.1 µM (inactive) | 38.8 µM (inactive) | 20.1 µM (inactive) | 99.3 µM (inactive) | 30.3 µM (inactive) | 51.1 µM (inactive) | 80 µM (inactive) | 24.6 µM (inactive) | – | 35.1 µM (inactive) | 20.1 µM (inactive) | 80.5 µM (inactive) | > 100 µM (inactive) | 47.2 µM (inactive) | 35.6 µM (inactive) | 37.2 µM (inactive) | –
5 | O=C([O-])C[n+]1ccccc1.c1ccncc1 | > 100 µM (inactive) | > 100 µM (inactive) | > 100 µM (inactive) | > 100 µM (inactive) | > 100 µM (inactive) | > 100 µM (inactive) | > 100 µM (inactive) | > 100 µM (inactive) | > 100 µM (inactive) | > 100 µM (inactive) | > 100 µM (inactive) | > 100 µM (inactive) | > 100 µM (inactive) | – | > 100 µM (inactive) | > 100 µM (inactive) | > 100 µM (inactive) | > 100 µM (inactive) | > 100 µM (inactive) | –
6 | O=C(O)C/C(=C\c1ccccc1)C(=O)O | > 100 µM (inactive) | > 100 µM (inactive) | > 100 µM (inactive) | > 100 µM (inactive) | 31.7 µM (inactive) | > 100 µM (inactive) | > 100 µM (inactive) | > 100 µM (inactive) | > 100 µM (inactive) | > 100 µM (inactive) | > 100 µM (inactive) | > 100 µM (inactive) | > 100 µM (inactive) | > 100 µM (inactive) | > 100 µM (inactive) | > 100 µM (inactive) | > 100 µM (inactive) | > 100 µM (inactive) | > 100 µM (inactive) | –
7 | CCN(CC)CCSc1nc2c(c(=N)n1-c1ccccc1)c(=S)n(-c1ccccc1)c(=S)n2-c1ccccc1 | 8.85 µM (inactive) | – | 1.55 µM (inactive) | 2.36 µM (inactive) | 0.601 µM (active) | 7.55 µM (inactive) | 1.8 µM (inactive) | 1.64 µM (inactive) | 1.67 µM (inactive) | 1.66 µM (inactive) | 25.7 µM (inactive) | 0.0843 µM (active) | 2.06 µM (inactive) | 1.58 µM (inactive) | 1.5 µM (inactive) | 3.62 µM (inactive) | 2.23 µM (inactive) | 1.67 µM (inactive) | 1.77 µM (inactive) | 0.257 µM (active)
8 | O=c1[nH]c2c(c(=O)[nH]1)SC(c1ccccc1)C2 (centres undefined) | > 100 µM (inactive) | 94 µM (inactive) | > 100 µM (inactive) | > 100 µM (inactive) | > 100 µM (inactive) | 93.8 µM (inactive) | > 100 µM (inactive) | > 100 µM (inactive) | > 100 µM (inactive) | > 100 µM (inactive) | > 100 µM (inactive) | > 100 µM (inactive) | > 100 µM (inactive) | > 100 µM (inactive) | > 100 µM (inactive) | > 100 µM (inactive) | > 100 µM (inactive) | > 100 µM (inactive) | > 100 µM (inactive) | –
9 | O=C(O)[C@H]1CCCN1CP(=O)(O)CN1CCC[C@@H]1C(=O)O | – | > 100 µM (inactive) | > 100 µM (inactive) | > 100 µM (inactive) | > 100 µM (inactive) | > 100 µM (inactive) | > 100 µM (inactive) | > 100 µM (inactive) | > 100 µM (inactive) | > 100 µM (inactive) | – | > 100 µM (inactive) | > 100 µM (inactive) | – | > 100 µM (inactive) | > 100 µM (inactive) | > 100 µM (inactive) | > 100 µM (inactive) | > 100 µM (inactive) | –
10 | CCc1n[nH]c(=O)n1/N=C(\C)c1ccccc1 | > 100 µM (inactive) | > 100 µM (inactive) | > 100 µM (inactive) | > 100 µM (inactive) | > 100 µM (inactive) | > 100 µM (inactive) | > 100 µM (inactive) | > 100 µM (inactive) | > 100 µM (inactive) | > 100 µM (inactive) | > 100 µM (inactive) | > 100 µM (inactive) | > 100 µM (inactive) | – | > 100 µM (inactive) | > 100 µM (inactive) | > 100 µM (inactive) | > 100 µM (inactive) | > 100 µM (inactive) | –
11 | CCOC(=O)C1=CN2C(=N[C@H]3CCCC[C@@H]32)NC1=O | > 100 µM (inactive) | > 100 µM (inactive) | > 100 µM (inactive) | > 100 µM (inactive) | > 100 µM (inactive) | > 100 µM (inactive) | > 100 µM (inactive) | > 100 µM (inactive) | > 100 µM (inactive) | > 100 µM (inactive) | > 100 µM (inactive) | > 100 µM (inactive) | > 100 µM (inactive) | > 100 µM (inactive) | > 100 µM (inactive) | > 100 µM (inactive) | > 100 µM (inactive) | > 100 µM (inactive) | > 100 µM (inactive) | –
12 | Cc1ccccc1-n1c(=O)c2ncn(C3CCCO3)c2n(-c2ccccc2C)c1=S (centres undefined) | > 100 µM (inactive) | > 100 µM (inactive) | > 100 µM (inactive) | > 100 µM (inactive) | > 100 µM (inactive) | > 100 µM (inactive) | – | > 100 µM (inactive) | > 100 µM (inactive) | > 100 µM (inactive) | > 100 µM (inactive) | > 100 µM (inactive) | > 100 µM (inactive) | > 100 µM (inactive) | > 100 µM (inactive) | – | > 100 µM (inactive) | > 100 µM (inactive) | > 100 µM (inactive) | –
13 | C[C@]12CC/C(=N\OCCN3CCCCC3)C=C1CCC1C2CC[C@@]2(C)C1CC[C@]2(C)O (some centres undefined) | 3.14 µM (inactive) | 4.75 µM (inactive) | 11.2 µM (inactive) | 3.32 µM (inactive) | 5.26 µM (inactive) | 13.1 µM (inactive) | 10.8 µM (inactive) | 11.9 µM (inactive) | 5.65 µM (inactive) | 8.17 µM (inactive) | 3.3 µM (inactive) | 3.2 µM (inactive) | 7.38 µM (inactive) | 9.27 µM (inactive) | 6.75 µM (inactive) | 11.2 µM (inactive) | 10 µM (inactive) | 13.4 µM (inactive) | 2.28 µM (inactive) | –
14 | Cc1ccc(N2C(=O)C3c4[nH]c5ccc(C)cc5c4C4CCC(C(C)(C)C)CC4C3C2=O)cc1 (centres undefined) | – | 11.3 µM (inactive) | 14 µM (inactive) | 21 µM (inactive) | 4.05 µM (inactive) | 35.8 µM (inactive) | 16.6 µM (inactive) | 13.1 µM (inactive) | 12.1 µM (inactive) | 15.2 µM (inactive) | 21.6 µM (inactive) | 7.59 µM (inactive) | 14.3 µM (inactive) | – | 17.6 µM (inactive) | 22.4 µM (inactive) | 26.9 µM (inactive) | 11.9 µM (inactive) | 15.6 µM (inactive) | –
15 | C/C=C\C(CC(=O)NCCc1cn(C(=O)OCc2ccccc2)c2ccccc12)CC(=O)OC (centres undefined) | > 100 µM (inactive) | 46.6 µM (inactive) | > 100 µM (inactive) | 79.1 µM (inactive) | 71.1 µM (inactive) | > 100 µM (inactive) | 50.2 µM (inactive) | 76.7 µM (inactive) | > 100 µM (inactive) | 40.6 µM (inactive) | – | – | 91.4 µM (inactive) | > 100 µM (inactive) | > 100 µM (inactive) | > 100 µM (inactive) | 60 µM (inactive) | > 100 µM (inactive) | 48.5 µM (inactive) | –
